Test results taken from patent US10023591B2, “Heterocyclic derivatives and use thereof” (C&C RESEARCH LABORATORIES, priority 2014, dated 2018).

Columns and labels:
STAT1 = STAT1 reporter gene assay (luciferase), U2OS stable cell line pGL4-STAT1-TA-luc, IFN-γ stimulation; type: cell-based, human; conditions: Homo sapiens, IFN-γ 50 ng/mL, 8 hours, read-out: IC50 (μM) pSTAT1
Summary of the method: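 U2OS cells stably carrying a STAT1-driven luciferase reporter were treated with serially diluted compounds plus IFN-γ (50 ng/mL final) for 8 h at 37 °C in 10% FBS medium. Luciferase read after lysis; parallel plate assessed for cytotoxicity by CellTiter-Glo.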

[1] = system: NCI-N87 stomach cancer cell line; test: Cell growth inhibition assay, NCI-N87 (CellTiter-Glo); type: cell-based; conditions: Homo sapiens; NCI-N87, 5,000 cells/well, 96 hours
Summary of the method: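 Cells seeded at 3,000 (DU-145), 5,000 (NCI-N87) or 10,000 (LNCaP, MDA-MB-468) per well, LNCaP in medium with 10 ng/mL IL-6. Serially diluted compound for 96 h at 37 °C (MDA-MB-468 in air, others 5% CO2); viability by CellTiter-Glo luminescence versus 0.1% DMSO wells.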

[2] = system: MDA-MB-468 breast cancer cell line; test: Cell growth inhibition assay, MDA-MB-468 (CellTiter-Glo); type: cell-based; conditions: Homo sapiens, MDA-MB-468, 96 hours
Experimental: (§1) The inhibitory effects of the compounds of the present invention against the growth of cancer cells were evaluated as shown below. The cancer cell lines including prostate cancer cell lines (LNCaP, DU-145), stomach cancer cell line (NCI-N87), and breast cancer cell lines (MDA-MB-468) were cultured under the protocol provided by each supplier. A medium supplemented with 10 ng/mL of IL-6 was used for LNCaP, a prostate cancer cell line, when treated with a drug. Each type of cells to be used in experiments was sub-cultured in a 96-well plate by counting the exact number of cells using Tali™ Image-based Cytometer (Life Technologies). In a 96-well plate, DU-145 was employed with 3,000 cells/well; NCI-N87 was employed with 5,000 cells/well; and LNCaP and MDA-MB-468 were employed with 10,000 cells/well. The cells were treated with the compounds listed in Examples which were diluted in various concentrations. Upon completion of the compounds treatment, LNCaP, DU-145, NCI-N87 cells were cultured at 37° C. under 5% CO2 for 96 hours, and MDA-MB-468 cells were cultured at 37° C. in air for 96 hours. Subsequently, the cells were observed under microscope and drug precipitation and particular findings were investigated and recorded. And then, the 96-well plate was placed at room temperature for 30 minutes, added with 20 pt/well of CellTiter-Glo solution (Cat No. G7573, Promega) and shaken for 10 minutes, followed by being subjected to the measurement using PHERAstar™ microplate reader (BMG LABTECH) according to the supplier's general luminometer protocol. Wells where only culture liquid added without cell plating were used as a negative control, whereas wells where culture liquid containing 0.1% DMSO instead of the compounds listed in Examples were used as a positive control.

STAT3 = STAT3 reporter gene assay (luciferase), LNCaP stable cell line pSTAT3-TA-luc, IL-6 stimulation; type: cell-based, human; conditions: Homo sapiens
Summary of the method: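 LNCaP cells stably carrying pSTAT3-TA-luc were plated 24 h in 3% DCC-FBS medium, then given compound followed by IL-6 (10 ng/mL final) for 24 h at 37 °C. Luciferase was read from lysates, with CellTiter-Glo viability on a duplicate plate. Stimulated 0.1% DMSO wells served as uninhibited control.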

[3] = system: DU-145 prostate cancer cell line; test: Cell growth inhibition assay, DU-145 (CellTiter-Glo); type: cell-based; conditions: Homo sapiens; DU-145, 3,000 cells/well, 96 hours
Experimental: as §1

[4] = system: LNCaP prostate cancer cell line; test: Cell growth inhibition assay, LNCaP (CellTiter-Glo); type: cell-based; conditions: Homo sapiens; LNCaP, 10,000 cells/well, medium with 10 ng/mL IL-6, 96 hours
Experimental: as §1

IC50 (STAT1) | IC50 [1] | IC50 [2] | IC50 (STAT3) | IC50 [3] | IC50 [4] | SMILES
> 50 µM | 0.069 µM | 0.0084 µM | 0.04 µM | – | – | CC(C)(c1ccc2sc(C(=O)Nc3cc(Cl)nc(Oc4cccc(Cl)c4)c3)cc2c1)S(C)(=O)=O [Example 80, N-(2-chloro-6-(3-chlorophenoxy)pyridin-4-yl)-5-(2-(methylsulfonyl)propan-2-yl)benzo[b]thiophene-2-carboxamide]
> 50 µM | 0.02 µM | 0.0026 µM | 0.0065 µM | – | – | CC(C)(c1ccc2sc(C(=O)Nc3cc(Cl)nc(Oc4ccc(OC(F)(F)F)cc4)c3)cc2c1)S(C)(=O)=O [Example 84, N-(2-chloro-6-(4-(trifluoromethoxy)phenoxy)pyridin-4-yl)-5-(2-(methylsulfonyl)propan-2-yl)benzo[b]thiophene-2-carboxamide]
> 50 µM | 0.02 µM | 0.0056 µM | 0.011 µM | – | – | CC(C)(c1ccc2sc(C(=O)Nc3cc(Cl)nc(Oc4ccc(F)c(Cl)c4)c3)cc2c1)S(C)(=O)=O [Example 71, N-(2-chloro-6-(3-chloro-4-fluorophenoxy)pyridin-4-yl)-5-(2-(methylsulfonyl)propan-2-yl)benzo[b]thiophene-2-carboxamide]
> 50 µM | 0.021 µM | – | 0.0084 µM | 0.0053 µM | 0.047 µM | CC(C)(c1ccc2sc(C(=O)Nc3cc(Cl)nc(Oc4ccc(C(F)(F)F)cc4)c3)cc2c1)S(C)(=O)=O [Example 67, N-(2-chloro-6-(4-(trifluoromethyl)phenoxy)pyridin-4-yl)-5-(2-(methylsulfonyl)propan-2-yl)benzo[b]thiophene-2-carboxamide]
> 50 µM | – | – | 0.054 µM | 0.07 µM | 0.11 µM | COc1cc(NC(=O)c2cc3cc(C(C)(C)S(C)(=O)=O)ccc3s2)cc(Oc2ccc(Cl)cc2)c1 [Example 46, N-(3-(4-chlorophenoxy)-5-methoxyphenyl)-5-(2-(methylsulfonyl)propan-2-yl)benzo[b]thiophene-2-carboxamide]
> 50 µM | – | – | 0.019 µM | 0.019 µM | 0.039 µM | CC(C)(c1cc2cc(C(=O)Nc3cc(Cl)cc(Oc4ccc(Cl)cc4)c3)sc2cc1F)S(C)(=O)=O [Example 44, N-(3-chloro-5-(4-chlorophenoxy)phenyl)-6-fluoro-5-(2-(methylsulfonyl)propan-2-yl)benzo[b]thiophene-2-carboxamide]
> 50 µM | – | – | 0.07 µM | 0.026 µM | 0.14 µM | CN(c1ccc(Cl)cc1)c1cc(NC(=O)c2cc3cc(C(C)(C)S(C)(=O)=O)ccc3s2)cc(Cl)n1 [Example 100, N-(2-chloro-6-((4-chlorophenyl)(methyl)amino)pyridin-4-yl)-5-(2-(methylsulfonyl)propan-2-yl)benzo[b]thiophene-2-carboxamide]
> 50 µM | – | – | 0.015 µM | 0.014 µM | 0.024 µM | CC(C)(c1ccc(Cl)cc1)c1cc(Cl)cc(NC(=O)c2cc3cc(C(C)(C)S(C)(=O)=O)ccc3s2)c1 [Example 22, N-(3-chloro-5-(2-(4-chlorophenyl)propan-2-yl)phenyl)-5-(2-(methylsulfonyl)propan-2-yl)benzo[b]thiophene-2-carboxamide]
> 50 µM | – | – | 3.3 µM | > 1.1 µM | > 1.1 µM | CS(=O)(=O)C1(c2ccc3sc(C(=O)Nc4cc(Cl)cc(Oc5ccc(Cl)cc5)c4)cc3c2)CCOCC1 [Example 56, N-(3-chloro-5-(4-chlorophenoxy)phenyl)-5-(4-(methylsulfonyl)tetrahydro-2H-pyran-4-yl)benzo[b]thiophene-2-carboxamide]
> 50 µM | – | – | 0.022 µM | 0.0082 µM | 0.031 µM | CC(C)(c1ccc2sc(C(=O)Nc3cc(Cl)cc(Oc4ccc(F)c(Cl)c4)c3)cc2c1)S(C)(=O)=O [Example 51, N-(3-chloro-5-(3-chloro-4-fluorophenoxy)phenyl)-5-(2-(methylsulfonyl)propan-2-yl)benzo[b]thiophene-2-carboxamide]
> 50 µM | – | – | 0.022 µM | 0.016 µM | 0.02 µM | CC(C)(c1ccc2sc(C(=O)Nc3cc(Cl)cc(Oc4cc(F)cc(Cl)c4)c3)cc2c1)S(C)(=O)=O [Example 47, N-(3-chloro-5-(3-chloro-5-fluorophenoxy)phenyl)-5-(2-(methylsulfonyl)propan-2-yl)benzo[b]thiophene-2-carboxamide]
> 50 µM | – | – | 0.14 µM | 0.11 µM | 0.24 µM | CC(C)(c1ccc(Cl)cc1)c1cc(NC(=O)c2cc3cc(C(C)(C)S(C)(=O)=O)ccc3s2)[nH]n1 [Example 89, N-(3-(2-(4-chlorophenyl)propan-2-yl)-1H-pyrazol-5-yl)-5-(2-(methylsulfonyl)propan-2-yl)benzo[b]thiophene-2-carboxamide]
> 50 µM | – | – | 0.084 µM | 0.04 µM | 0.8 µM | CC(C)(c1ccc(Cl)cc1)c1cc(Cl)cc(NC(=O)c2cc3cc(C(C)(C)S(C)(=O)=O)c(Cl)cc3s2)c1 [Example 23, 6-chloro-N-(3-chloro-5-(2-(4-chlorophenyl)propan-2-yl)phenyl)-5-(2-(methylsulfonyl)propan-2-yl)benzo[b]thiophene-2-carboxamide]
> 50 µM | – | – | 0.86 µM | 0.11 µM | 0.24 µM | CC(C)(c1ccc2cc(C(=O)Nc3cc(Cl)cc(Oc4ccc(Cl)cc4)c3)sc2c1)S(C)(=O)=O [Example 58, N-(3-chloro-5-(4-chlorophenoxy)phenyl)-6-(2-(methylsulfonyl)propan-2-yl)benzo[b]thiophene-2-carboxamide]
> 50 µM | – | – | 0.025 µM | 0.015 µM | 0.022 µM | CC(C)(c1ccc2sc(C(=O)Nc3cc(Cl)cc(Oc4ccc(F)c(F)c4)c3)cc2c1)S(C)(=O)=O [Example 52, N-(3-chloro-5-(3,4-difluorophenoxy)phenyl)-5-(2-(methylsulfonyl)propan-2-yl)benzo[b]thiophene-2-carboxamide]
> 50 µM | – | – | 0.034 µM | 0.032 µM | 0.046 µM | CC(C)(c1ccc2sc(C(=O)Nc3cc(Oc4ccc(Cl)cc4)cc(Cl)n3)cc2c1)S(C)(=O)=O [Example 63, N-(6-chloro-4-(4-chlorophenoxy)pyridin-2-yl)-5-(2-(methylsulfonyl)propan-2-yl)benzo[b]thiophene-2-carboxamide]
> 50 µM | – | – | 0.072 µM | 0.1 µM | 0.26 µM | CC(C)(C)OC(=O)NCCOc1cc(NC(=O)c2cc3cc(C(C)(C)S(C)(=O)=O)ccc3s2)cc(Oc2ccc(Cl)cc2)c1 [Example 93, tert-butyl (2-(3-(4-chlorophenoxy)-5-(5-(2-(methylsulfonyl)propan-2-yl)benzo[b]thiophene-2-carboxamido)phenoxy)ethyl)carbamate]
> 50 µM | – | – | 0.019 µM | 0.013 µM | 0.019 µM | CC(C)(c1ccc2sc(C(=O)Nc3cc(Cl)cc(Oc4ccc(Cl)cc4)c3)cc2c1)S(C)(=O)=O [Example 49, N-(3-chloro-5-(4-chlorophenoxy)phenyl)-5-(2-(methylsulfonyl)propan-2-yl)benzo[b]thiophene-2-carboxamide]
